For data set [1], the system named is L. amazonensis promastigotes. Briefly: L. amazonensis promastigote dose response assay (alamarBlue/resazurin). The data set is classed as cell-based. As to conditions: 44 hrs + 4 hrs alamarBlue/resazurin, 26° C., read-out: EC50 (L. amaz)/μM.
The next data set has as its system L. major promastigotes. Briefly: L. major promastigote dose response assay (alamarBlue/resazurin). The settings on record: 44 hrs + 4 hrs alamarBlue/resazurin, 26° C. The data set is classed as cell-based. How it is done: (§1) Using a standard alamarBlue™ assay, activity and selectivity were assessed using L. major promastigotes and HepG2 cells, respectively.
All parasite and human cell cultures were grown and manipulated following biosafety level 2 instructions under sterile conditions. L. major FV1, L. amazonensis (MHOM/Br/75/JOSEFA), L. donovani BOB (derived from MHOM/SD/62/1S-CL2D), T. brucei (90-13, 427 strain) and T. cruzi (Dm28c) were used throughout.
All steps were carried out under sterile conditions. Frozen stocks of the relevant Leishmania promastigote species were thawed rapidly and added to Schneider's media. Promastigotes were grown at 26° C. in Nunc EasYFlask 25 cm^2 Nunclon Delta Surface (ThermoScientific) and frozen stocks were prepared on low passage cultures (p2-4) by pelleting the cells by centrifugation and resuspending in Schneider's media with 10% DMSO. The cultures were aliquoted into cryovials (Starlab) and cooled slowly to −150° C. for long term storage.
All steps were carried out under sterile conditions. […] Cycloheximide or amphotericin B were used as positive controls and 2% DMSO was used as a negative control. alamarBlue® (ThermoFisher scientific) or resazurin solution was added to each well and incubated for a further 4 hrs at 26° C. Cell-viability was determined using a BioTek™ FLx800 microplate reader with Gen5® 1.08 data analysis software (BioTek) by monitoring fluorescence emission (λex 560/λem 590 nm). Dose response curves were fitted using sigmoidal regression analysis (GraphPad Prism 8 software) and used to calculate EC50 values.

The test system of data set [2] is L. donovani promastigotes. Briefly: L. donovani promastigote dose response assay (resazurin). As to conditions: promastigotes, 72 hrs at 26° C., resazurin, read-out: EC50 (L. don)/μM. Format: cell-based.
A short description of a further data set: Kinetic solubility. The settings on record: for solubility at 2 h: kinetic from dmso stock. From the text:
All chemicals and solvents were sourced from commercial suppliers. Buffers were made up using purified water from a MilliQ® water purification system. Biorelevant buffers (FESSIF, FASSIF and FASSGF) were purchased from Biorelevant and made up according to manufacturer's instructions. 15% FBS (heat inactivated, South American origin, ThermoFisher scientific) in PBS (Fisher Scientific) was filter sterilised (0.22 μm Fisherbrand™ Sterile PES Syringe Filter, Fisher Scientific) before use. Sodium taurocholate was purchased from Merck.
λmax was determined for each compound from the UV-Vis absorption spectrum of a 200 LIM compound solution in buffer of interest using a Varian Cary® 100 UV-Vis Spectrophotometer. A calibration curve of λmax VS concentration was obtained by serial dilution of compound from 200 μM in the buffer of interest, correcting for background buffer absorption. For each sample, a DMSO solution of compound was incubated in buffer of interest (<5% DMSO) for 2 hrs at RT. The solution was filtered (0.22 μm Fisherbrand™ Sterile PES Syringe Filter, Fisher Scientific) or centrifuged (14,500 rpm, 10 min) to remove undissolved debris and the supernatant was removed and diluted as required. The corrected UV absorption of the supernatant at Amax Was measured using a Varian Cary® 100 UV-Vis Spectrophotometer and compared to the calibration curve to determine compound solubility.

The next data set deals with HepG2 cells. Briefly: HepG2 cytotoxicity dose response assay. As to conditions: read-out: CC50 (HepG2)/μM, 44 hrs + 4 hrs alamarBlue/resazurin. How it is done: as §1
All steps were carried out under sterile conditions. HepG2 cells were thawed rapidly into DMEM. Cells were grown at 37° C., 5% CO2 for >5 days in T-75 CytoOne® Flask, TC-Treated, Vented flasks (Starlab) in a Sanyo MCO-18M incubator. […] The trypsin was deactivated by addition of DMEM. The cells were homogenised and 5 mL of cell culture was added to 20 mL fresh DMEM. Cells were split 1:4 every 3 days. Frozen stocks were prepared in the same way as the passage, but resuspended into DMEM with 10% DMSO, aliquoted into cryovials (Starlab) and cooled slowly to −150° C. for long term storage.
All steps were carried out under sterile conditions. 80-100% confluent HepG2 were plated into Corning™ Costar™ 96-Well Flat-Bottom Microplates (Fisher Scientific) by adding 200 μL of a homogenous dispersion of cells at a concentration of 0.6×10^5 cells mL^−1 before incubation at 37° C., 5% CO2 overnight. […] The plates were incubated at 37° C., 5% CO2 for 44 hrs in a Sanyo MCO-18M incubator. alamarBlue® (ThermoFisher scientific) or resazurin solution (10 μL) was added to each well and incubated for a further 4 hrs at 37° C., 5% CO2. Cell-viability was determined using a BioTek™ FLx800 microplate reader with Gen5® 1.08 data analysis software (BioTek) by monitoring fluorescence emission (Nex 560/hem 590 nm). Dose response curves were fitted using sigmoidal regression analysis (GraphPad Prism 8 software) and used to calculate EC50 values.

Where [3] appears, read: kinetic solubility in FESSIF, 2 hrs at RT.
Setting [4] is: kinetic solubility in PBS, 2 hrs at RT.

Values after ≈ are worked out from the molar mass of the structure shown. Like-named read-outs stand apart in the source and are kept apart here.

Turning to `CNC(=O)C1CCCC1NC(=O)c1ccc([N+](=O)[O-])s1` (racemic) [Compound 25, N—[±2′-(methylcarbamoyl)cyclopentyl]-5′-nitrothiophene-2-carboxamide], the EC50 in data set [1] came to 8 µM; in the data set with L. major promastigotes, 20 µM; in data set [2], 3.4 µM.

Take `CNC(=O)c1ccsc1NC(=O)c1ccc([N+](=O)[O-])o1` [Compound 17, N-[3-(methylcarbamoyl)thiophen-2-yl]-5′-nitrofuran-2′-carboxamide]: the EC50 in data set [1] (Leishmania amazonensis, 48 h) was found to be 0.33 µM; in the data set with L. major promastigotes (Leishmania major, 48 h), 0.37 µM; in data set [2] (Leishmania donovani) it was 0.2 µM.

`NC(=O)c1ccccc1NC(=O)c1ccc([N+](=O)[O-])s1` [Compound 27, N-(2-carbamoylphenyl)-5′-nitrothiophene-2′-carboxamide]: the “Solubility (FESSIF)/μM” value in “Kinetic solubility” was determined as 90 µM (≈ 26.2 µg/mL). Also, the “Solubility (PBS)/μM” value in “Kinetic solubility” is under 2.5 µM. For the same molecule, the EC50 worked out at 0.079 µM in data set [1] and 0.47 µM with L. major promastigotes.

With `CNC(=O)c1ccccc1NC(=O)c1ccc([N+](=O)[O-])s1` [Compound 28, N-[2-(methylcarbamoyl)phenyl]-5′-nitrothiophene-2′-carboxamide], in the data set “Kinetic solubility” (setting [3]), the “Solubility (FESSIF)/μM” value amounted to 143 µM (≈ 43.7 µg/mL). Moreover, in “Kinetic solubility” (setting [4]), the “Solubility (PBS)/μM” value is 8.5 µM (≈ 2.6 µg/mL). Also, the EC50 in data set [1] came out at 0.052 µM; with L. major promastigotes it was 0.65 µM; in data set [2], 0.012 µM. The CC50 in the data set with HepG2 cells stood at 5 µM.

Turning to `O=C(Nc1ccccc1)c1ccc([N+](=O)[O-])s1` [Compound 33, 5′-nitro-N-phenylthiophene-2′-carboxamide], the “Solubility (PBS)/μM” value in “Kinetic solubility” (setting [4]) is 15 µM (≈ 3.72 µg/mL). Also, the EC50 is 3.6 µM in data set [1], 4.06 µM in the data set on L. major promastigotes and 0.93 µM in data set [2].

Consider `CNC(=O)c1cccc(Nc2ccc([N+](=O)[O-])s2)c1` [Compound 34, N-methyl-3-[(5′-nitrothiophen-2′-yl)amino]benzamide], for which the EC50 in data set [1] came out at 0.26 µM; in the data set with L. major promastigotes, 3.5 µM.

Turning to `O=C(Nc1cccc(C(F)(F)F)c1)c1ccc([N+](=O)[O-])s1` [Compound 37, 5′-nitro-N-[3-(trifluoromethyl)phenyl]thiophene-2′-carboxamide], the values for the EC50 (in data set [1]; with L. major promastigotes) were 2.22 µM and 3.5 µM, respectively.

As for `CNC(=O)c1ccc(OC)cc1NC(=O)c1ccc([N+](=O)[O-])s1` [Compound 43, N-[5-methoxy-2-(methylcarbamoyl)phenyl]-5′-nitrothiophene-2′-carboxamide], the “Solubility (FESSIF)/μM” value in the data set “Kinetic solubility” (setting [3]) amounted to 38 µM (≈ 12.7 µg/mL). For the same molecule, the “Solubility (PBS)/μM” value in the data set “Kinetic solubility” (setting [4]) was under 7.4 µM. The EC50 in data set [1] worked out at 0.021 µM; in the data set on L. major promastigotes, 0.33 µM; in data set [2], 0.006 µM. Further, in the data set with HepG2 cells, the CC50 is over 100 µM.

With `CNC(=O)c1ccc(C)cc1NC(=O)c1ccc([N+](=O)[O-])s1` [Compound 44, N-[5-methyl-2-(methylcarbamoyl)phenyl]-5′-nitrothiophene-2′-carboxamide], in the data set “Kinetic solubility” (setting [3]), the “Solubility (FESSIF)/μM” value was 65 µM (≈ 20.8 µg/mL). Moreover, the “Solubility (PBS)/μM” value in the data set “Kinetic solubility” (setting [4]) is under 7.4 µM. Further, the EC50 worked out at 0.027 µM in data set [1], 0.34 µM in the data set on L. major promastigotes and 0.005 µM in data set [2]. The CC50 in the data set with HepG2 cells was 31 µM.

With `CNC(=O)c1ccc(C(F)(F)F)cc1NC(=O)c1ccc([N+](=O)[O-])s1` [Compound 45, N-[2-(methylcarbamoyl)-5-(trifluoromethyl)phenyl]-5′-nitrothiophene-2′-carboxamide], in the data set “Kinetic solubility” (setting [3]), the “Solubility (FESSIF)/μM” value was found to be 250 µM (≈ 93.3 µg/mL). The “Solubility (PBS)/μM” value in the data set “Kinetic solubility” (setting [4]) is 6.5 µM (≈ 2.43 µg/mL). The EC50 in data set [1] is 0.24 µM; with L. major promastigotes it was 1.84 µM. Further, the CC50 in the data set on HepG2 cells is 13 µM.

Turning to `CNC(=O)c1ccc(Br)cc1NC(=O)c1ccc([N+](=O)[O-])s1` [Compound 46, N-[5-bromo2-(methylcarbamoyl)phenyl]-5′-nitrothiophene-2′-carboxamide], the “Solubility (FESSIF)/μM” value in “Kinetic solubility” (setting [3]) stood at 210 µM (≈ 80.7 µg/mL). For the same molecule, the “Solubility (PBS)/μM” value in “Kinetic solubility” (setting [4]) is under 2.5 µM. The results for the EC50 (in data set [1]; with L. major promastigotes; in data set [2]) were 0.048 µM, 0.57 µM and 0.12 µM, respectively. The CC50 with HepG2 cells amounted to 7.2 µM.

In “Kinetic solubility” (PBS, aqueous buffer), `NC(=O)c1ccccc1CNC(=O)c1ccc([N+](=O)[O-])s1` [Compound 47, N-(2-carbamoylbenzyl)-5′-nitrothiophene-2′-carboxamide] gave a solubility at 2 h of 179 ± 8 µM (≈ 54.7 µg/mL). The EC50 in the data set with L. major promastigotes (Leishmania major, 48 h) was 21 ± 3 µM.

On to `CNC(=O)c1ccsc1N(C)C(=O)c1ccc([N+](=O)[O-])s1` [Compound 48, N-methyl-2-(N-methyl-5′-nitrothiophene-2′-amido)thiophene-3-carboxamide], for which the solubility at 2 h in the data set “Kinetic solubility” (PBS, aqueous buffer) came to 190 ± 20 µM (≈ 61.8 µg/mL). In addition, the EC50 in the data set on L. major promastigotes (Leishmania major, 48 h) is 9.6 ± 0.7 µM.

In the case of `O=C(c1ccc([N+](=O)[O-])s1)N1CCCc2ccccc21` [Compound 49, 1-(5′-nitrothiophene-2′-carbonyl)-1,2,3,4-tetrahydroquinoline], in “Kinetic solubility” (PBS, aqueous buffer), the concentration in solution (solubility at 2 h) came to 151 ± 3 µM (≈ 43.5 µg/mL). Moreover, in the data set with L. major promastigotes (Leishmania major, 48 h), the EC50 worked out at 11.1 ± 0.3 µM.

The molecule `CNC(=O)c1ccsc1/N=C/c1ccc([N+](=O)[O-])s1` [Compound 50, N-methyl-2-[(E)-[(5′-nitrothiophen-2′-yl)methylidene]amino]thiophene-3-carboxamide] had a solubility at 2 h in the data set “Kinetic solubility” (PBS, aqueous buffer) of 101 ± 6 µM (≈ 29.8 µg/mL). In the data set with L. major promastigotes (Leishmania major, 48 h), the EC50 was 0.86 ± 0.07 µM.

On to `CNC(=O)c1ccc(OCCOCCOC)cc1NC(=O)c1ccc([N+](=O)[O-])s1` [Compound 51, N-{5-[2″-(2″-methoxyethoxy)ethoxy]-2-(methylcarbamoyl)phenyl}-5′-nitrothiophene-2′-carboxamide], for which the solubility at 2 h in the data set “Kinetic solubility” (FASSGF, fassgf or other biorelevant) was 11 µM (≈ 4.66 µg/mL); in the data set “Kinetic solubility” (FASSIF) it was under 7.4 µM; in the data set “Kinetic solubility” (FESSIF), 7.26 µM (≈ 3.07 µg/mL); in “Kinetic solubility” (PBS, aqueous buffer), 2.27 µM (≈ 0.961 µg/mL). The EC50 in data set [1] (Leishmania amazonensis, 48 h) was found to be 0.22 µM; in the data set on L. major promastigotes (Leishmania major, 48 h), 0.32 µM; in data set [2] (Leishmania donovani), 0.19 µM.

For `CNC(=O)c1ccc(C(C)(C)C)cc1NC(=O)c1ccc([N+](=O)[O-])s1` [Compound 55, N-[5-tert-butyl-2-(methylcarbamoyl)phenyl]-5′-nitrothiophene-2′-carboxamide], the solubility at 2 h in the data set “Kinetic solubility” (FESSIF) was 260 µM (≈ 94 µg/mL); in the data set “Kinetic solubility” (PBS, aqueous buffer), under 2.5 µM. Also, the EC50 in data set [1] (Leishmania amazonensis, 48 h) was 2.5 µM; in the data set on L. major promastigotes (Leishmania major, 48 h), 1.35 µM; in data set [2] (Leishmania donovani), 1.3 µM.

As to `CN(C)C(=O)c1ccccc1NC(=O)c1ccc([N+](=O)[O-])s1` [Compound 56, N-[2-(dimethylcarbamoyl)phenyl]-5′-nitrothiophene-2′-carboxamide], the EC50 in data set [1] (Leishmania amazonensis, 48 h) came to 6.3 µM; in the data set on L. major promastigotes (Leishmania major, 48 h), 17 µM.

Take “N-(3-cyanothiophen-2-yl)-5′-nitrothiophene-2′-carboxamide [Compound 5]”: the EC50 in data set [1] amounted to 2.1 µM; with L. major promastigotes it was 1.1 µM; in data set [2], 1.12 µM.

These data come from patent US20260125356A1, “TREATMENT OF LEISHMANIASIS” (THE UNIVERSITY OF DURHAM, priority 2022, published 2026).
